Laboratory results: ChEMBL document CHEMBL1641477, “Shp2 protein tyrosine phosphatase inhibitor activity of estramustine phosphate and its triterpenoid analogs” (Bioorg Med Chem Lett, 2011)

Tests used:
[1] = target: T1, Tyrosine-protein phosphatase non-receptor type 11 (Homo sapiens, UniProt Q06124); experiment: Inhibition of recombinant SHP2
T1 sequence (Q06124 whole entry): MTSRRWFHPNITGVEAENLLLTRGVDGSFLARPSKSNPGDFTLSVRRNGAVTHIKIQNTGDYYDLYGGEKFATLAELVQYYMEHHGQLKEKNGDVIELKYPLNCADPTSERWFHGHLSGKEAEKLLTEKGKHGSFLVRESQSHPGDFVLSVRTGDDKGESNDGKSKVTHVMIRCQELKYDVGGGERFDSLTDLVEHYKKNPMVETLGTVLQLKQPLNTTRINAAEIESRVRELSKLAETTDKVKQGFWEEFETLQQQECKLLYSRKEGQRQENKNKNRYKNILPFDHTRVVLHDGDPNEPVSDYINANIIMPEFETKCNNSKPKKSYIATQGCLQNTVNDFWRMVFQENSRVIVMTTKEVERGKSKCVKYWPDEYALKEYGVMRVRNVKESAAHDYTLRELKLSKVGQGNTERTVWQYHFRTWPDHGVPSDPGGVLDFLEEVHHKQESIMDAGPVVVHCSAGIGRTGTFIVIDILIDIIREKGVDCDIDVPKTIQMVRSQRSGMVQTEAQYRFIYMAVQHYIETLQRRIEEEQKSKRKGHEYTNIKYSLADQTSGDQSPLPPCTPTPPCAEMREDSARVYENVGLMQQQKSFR

[2] = target: Tyrosine-protein phosphatase non-receptor type 6 (Homo sapiens, UniProt P29350); experiment: Inhibition of recombinant SHP1
Sequence of Tyrosine-protein phosphatase non-receptor type 6 (P29350 whole entry): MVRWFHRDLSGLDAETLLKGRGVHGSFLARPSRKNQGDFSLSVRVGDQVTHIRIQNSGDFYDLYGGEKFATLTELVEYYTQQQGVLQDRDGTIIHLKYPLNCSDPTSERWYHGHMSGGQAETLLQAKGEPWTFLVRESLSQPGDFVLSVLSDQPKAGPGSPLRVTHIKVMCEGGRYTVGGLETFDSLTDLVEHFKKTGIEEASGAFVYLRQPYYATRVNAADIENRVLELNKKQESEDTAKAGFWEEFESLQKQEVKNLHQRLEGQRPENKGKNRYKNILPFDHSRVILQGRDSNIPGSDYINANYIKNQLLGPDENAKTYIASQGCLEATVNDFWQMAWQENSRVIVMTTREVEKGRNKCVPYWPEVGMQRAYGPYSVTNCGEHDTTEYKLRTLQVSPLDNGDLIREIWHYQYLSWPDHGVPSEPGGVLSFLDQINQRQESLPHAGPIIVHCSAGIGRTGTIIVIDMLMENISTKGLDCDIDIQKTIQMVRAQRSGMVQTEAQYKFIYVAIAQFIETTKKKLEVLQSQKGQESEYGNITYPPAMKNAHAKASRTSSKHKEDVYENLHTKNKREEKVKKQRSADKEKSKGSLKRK

[3] = target: T2, Tyrosine-protein phosphatase non-receptor type 7 (Homo sapiens, UniProt P35236); experiment: Inhibition of recombinant HePTP
T2 sequence (P35236 whole entry): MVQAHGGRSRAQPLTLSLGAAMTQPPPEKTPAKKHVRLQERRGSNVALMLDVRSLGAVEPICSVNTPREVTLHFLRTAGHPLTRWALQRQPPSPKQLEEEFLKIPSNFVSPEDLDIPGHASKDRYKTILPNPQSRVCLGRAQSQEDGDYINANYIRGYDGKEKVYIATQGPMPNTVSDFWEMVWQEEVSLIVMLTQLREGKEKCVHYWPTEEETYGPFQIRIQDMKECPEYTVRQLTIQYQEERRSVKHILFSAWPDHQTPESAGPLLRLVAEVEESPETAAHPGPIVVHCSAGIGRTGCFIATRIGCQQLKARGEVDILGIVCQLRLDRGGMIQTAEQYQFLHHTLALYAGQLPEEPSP

[4] = target: T3, Tyrosine-protein phosphatase non-receptor type 1 (Homo sapiens, UniProt P18031); experiment: Inhibition of recombinant PTP1B
T3 sequence (P18031 whole entry): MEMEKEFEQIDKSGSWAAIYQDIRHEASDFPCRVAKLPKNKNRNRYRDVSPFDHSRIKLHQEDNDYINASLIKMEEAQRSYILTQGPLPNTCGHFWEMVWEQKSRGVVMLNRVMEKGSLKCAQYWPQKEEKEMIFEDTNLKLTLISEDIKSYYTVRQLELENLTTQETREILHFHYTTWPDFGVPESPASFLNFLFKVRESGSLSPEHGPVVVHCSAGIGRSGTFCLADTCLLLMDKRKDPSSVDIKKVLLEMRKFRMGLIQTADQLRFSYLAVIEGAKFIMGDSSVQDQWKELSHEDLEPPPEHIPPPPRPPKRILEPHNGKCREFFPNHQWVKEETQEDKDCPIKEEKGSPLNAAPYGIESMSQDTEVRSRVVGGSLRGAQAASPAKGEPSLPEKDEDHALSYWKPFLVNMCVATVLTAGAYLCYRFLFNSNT

[5] = target: T4, Tyrosine-protein phosphatase non-receptor type 11 (Homo sapiens) (UniProt Q06124)
T4 sequence (whole entry): T1 sequence (Q06124 whole entry)
Description: Mixed inhibition of recombinant SHP2 at enzyme-substrate complex by Lineweaver-Burk plot analysis

[6] = target: T1, Tyrosine-protein phosphatase non-receptor type 11; experiment: Binding affinity to recombinant SHP2 by surface plasmon […]
[7] = target: T4, Tyrosine-protein phosphatase non-receptor type 11 (Homo sapiens); remark: listed apart in the source
Description: Mixed inhibition of recombinant SHP2 by Lineweaver-Burk plot analysis

C[C@]12CC[C@@H]3c4ccc(OC(=O)N(CCCl)CCCl)cc4CC[C@H]3[C@@H]1CC[C@@H]2O [ESTRAMUSTINE]
IC50 [1]: > 300 µM

CC1(C)[C@@H](O)CC[C@]2(C)[C@H]3C(=O)C=C4[C@@H]5C[C@@](C)(C(=O)O)CC[C@]5(C)CC[C@@]4(C)[C@]3(C)CC[C@@H]12 [ENOXOLONE]
IC50 [2]: 65.4 µM
IC50 [3]: > 300 µM
IC50 [1]: 9.6 µM

CC1=C(O)C(=O)C=C2C1=CC=C1[C@@]2(C)CC[C@@]2(C)[C@@H]3C[C@](C)(C(=O)O)CC[C@]3(C)CC[C@]12C [CELASTROL]
IC50 [4]: 13.2 µM
IC50 [2]: 27.8 µM
IC50 [3]: 75.7 µM
IC50 [1]: 3.3 µM

COc1ccc2c(c1)CC[C@@H]1[C@@H]2CC[C@@]2(C)[C@H]1CC[C@@]21CCNP(=O)(N(CCCl)CCCl)O1 (some centres not stated)
IC50 [1]: > 300 µM

C[C@]12CC[C@@H]3c4ccc(O)cc4CC[C@H]3[C@@H]1CC[C@@H]2OP(=O)(O)O [ESTRADIOL PHOSPHATE]
IC50 [4]: > 300 µM
IC50 [2]: > 300 µM
IC50 [3]: > 300 µM
IC50 [1]: 19.9 µM

CC1=C(O)C(=O)C=C2C1=CC=C1[C@@]2(C)CC[C@@]2(C)[C@@H]3C[C@@H](C)C(=O)C[C@]3(C)CC[C@]12C [TINGENONE]
IC50 [1]: 61.6 µM

C[C@]12CC[C@@H]3c4ccc(OC(=O)N(CCCl)CCCl)cc4CC[C@H]3[C@@H]1CC[C@@H]2OP(=O)(O)O [ESTRAMUSTINE PHOSPHATE]
IC50 [4]: 62.4 µM
IC50 [2]: 40.4 µM
IC50 [3]: 153 µM
IC50 [1]: 17.1 µM
Kis [5]: 22.8 µM
Kd [6]: 8.4 µM
Kii [7]: 10.8 µM

C[C@]12CC[C@@H]3c4ccc(O)cc4CC[C@H]3[C@@H]1CC[C@@H]2O [ESTRADIOL]
IC50 [1]: > 300 µM
